Earlier results on one molecule are cited in patent US20240316119A1, “COMPOSITIONS AND METHODS FOR SUPPRESSING PATHOGENIC ORGANISMS” (VEDANTA BIOSCIENCES, INC., priority 2021, published 2024).

The subject of this data set is Klebsiella pneumoniae and Citrobacter rodentium. The note with it: reported in Stacy et al. Cell. 2021 184(3):615-627.

Turning to `NCCS(=O)(=O)O` [taurine, 2-aminoethanesulfonic acid], the “effect of supplying exogenous taurine alone on microbiota function and resistance to infection” value is “sufficient to induce this alteration in microbiota function and enhance resistance”.
